These results are taken from publication PMC9247573 (Frontiers in Microbiology, 2022).

One data set addresses T1, EcPsuK (Escherichia coli, UniProt Z9FTQ0OEG4).
T1 construct: N-terminal His6-SUMO removed with Ulp1; host E. coli BL21(DE3)
T1 sequence (Z9FTQ0OEG4 1-313): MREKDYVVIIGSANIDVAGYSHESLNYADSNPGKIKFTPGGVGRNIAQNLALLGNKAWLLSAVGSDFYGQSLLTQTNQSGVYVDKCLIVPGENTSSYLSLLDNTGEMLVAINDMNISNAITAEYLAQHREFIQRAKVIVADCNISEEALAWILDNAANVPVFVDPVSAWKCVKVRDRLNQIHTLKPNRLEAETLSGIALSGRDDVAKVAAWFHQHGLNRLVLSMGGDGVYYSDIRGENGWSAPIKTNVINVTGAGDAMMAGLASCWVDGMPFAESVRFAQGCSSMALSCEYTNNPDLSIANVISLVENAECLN
The data set is described as follows: X-ray crystallography, […] Å. It is filed as binding. The conditions noted are these: co-crystallised with ADP and Ψ, soaked with 1 mM Ψ and 4 mM ADP, MgCl2, pH 7.0, NaCl-purified protein; ADP not seen; nucleoside site; turnover also measured with ATP.

Data set [1] concerns the molecule itself. Put plainly: SEC; HiLoad 16/60 Superdex 200-pg, 10 mM Tris-HCl pH 8.0, 100 mM NaCl or 100 mM KCl; molecular weight of the purified protein against the calculated monomer.

Where a chain is given by its changes, count along the chain named.

Consider `O=c1[nH]cc([C@@H]2O[C@H](CO)[C@@H](O)[C@H]2O)c(=O)[nH]1` [pseudouridine], for which the “X-ray crystallography, 2.30 Å” value on EcPsuK is given as “we determined the crystal structure of EcPsuK complexed with pseudouridine through co-crystallization”.

B1: Escherichia coli pseudouridine kinase PsuK (enzyme, E. coli BL21 (DE3), UniProt P30235 1-313, looked up)
chain: T1 sequence (Z9FTQ0OEG4 1-313) with R129G, D203E, R235S, N238S
notes: E. coli pseudouridine kinase PsuK (YeiC), amplified from the E. coli BL21 (DE3) genome, Uniprot ID A0A140N873, aa 1-313 (313 residues, calculated 33.6 kDa); modelled from Arg2 to Asn308 in the apo structure; Cloned by BamHI and XhoI into a modified pET-28a with an Ulp1 cleavage site; also called EcPsuK; YeiC; source: E. coli BL21 (DE3), purified (Ni-NTA, Ulp1 cleavage, second Ni-NTA, Superdex …)
On to B1, for which the “stoichiometry N” value in data set [1] was 2.
